Here are results for 26 compounds from patent US11427561B2, “IRAK4 inhibiting agents” (BIOGEN MA INC., priority 2016, dated 2022).

One experiment deals with IRAK4 (Homo sapiens (Human), UniProt Q9NWZ3). Nature of the experiment: IRAK-4 biochemical assay, AlphaScreen format (phosphorylation of a biotin labeled peptide). Conditions: 1 nM IRAK4, 1.6 μM peptide, 1 mM ATP, 3.5 h at RT. The procedure:
Biochemical Assay: The biochemical assay is in a AlphaScreen format. The kinase reaction is based on the IRAK-4 phosphorylation of a biotin labeled peptide. The phosphopeptide is incubated with anti-phosphothreonine antibody as well as streptavidin- and protein A-coated beads. Binding of the protein-A coated beads to the antibody and the streptavidin beads to the peptide, leads to an energy transfer from one bead to the other, ultimately producing a luminescent/fluorescent signal.
Generally, the kinase reaction is carried out at 1 nM IRAK4, 1.6 μM peptide, 1 mM ATP in reaction buffer 50 mM Hepes, 60 mM NaCl, 5 mM MgCl2, 0.25 mM MnCl2, 2 mM DTT, 0.01% BSA, 0.01% Tween-20) for 3.5 h at RT.
The compounds described herein were tested for in the above biochemical assay.
A general note: Alpha assays give light when donor and acceptor beads are brought close together.

A further experiment has as its system A549 cells. Nature of the experiment: Cell-based assay: IL-6 ELISA quantification in A549 cells stimulated with human IL-1beta. Particulars: 2 ng/ml human IL-1beta overnight. The procedure:
Cell-based Assay: The cell-based assays is based on IL-6 ELISA quantification. Briefly, A549 cells are cultured in DMEM with 10% FBS medium. When cells reach 80% confluence they are trypsin treated and seeded 180 ul/well in 96-well plate at 2.5×10^4 cells/well. Then, 20 ul of compound serial dilutions (starting at 10 uM, 10 points) are added to the cell plate; incubate for 30 min at 37 C and stimulated with 2 ng/ml human IL-1beta 37 C, 5% CO2 overnight. The next day 100 ul of cell supernatant per well are analyzed on a Human IL-6 Quantikine ELISA kit from R&D Systems.
The compounds described herein were tested for in the above biochemical and cell-based assays.

Structures can show the parent of a compound that is named as a salt.

IRAK4, sequence (Q9NWZ3 whole entry, species assumed): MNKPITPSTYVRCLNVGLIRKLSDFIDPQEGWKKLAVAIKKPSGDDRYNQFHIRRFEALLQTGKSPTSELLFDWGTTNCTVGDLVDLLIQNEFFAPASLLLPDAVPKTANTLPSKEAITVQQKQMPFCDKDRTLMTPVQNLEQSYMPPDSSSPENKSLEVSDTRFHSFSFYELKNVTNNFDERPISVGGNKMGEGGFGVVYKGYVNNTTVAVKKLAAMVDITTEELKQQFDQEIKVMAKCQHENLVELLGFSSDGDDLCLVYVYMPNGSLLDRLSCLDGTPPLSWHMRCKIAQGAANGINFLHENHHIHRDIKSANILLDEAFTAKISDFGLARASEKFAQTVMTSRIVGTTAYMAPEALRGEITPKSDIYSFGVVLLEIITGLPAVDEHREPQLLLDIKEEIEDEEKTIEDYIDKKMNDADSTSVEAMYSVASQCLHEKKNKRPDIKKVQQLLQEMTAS

As for `NC(c1cccc(-c2ccc3cnn(-c4cccc(CO)n4)c3c2)n1)C1CCC(O)C1` (single isomer, unassigned) [Compound 21, 3-(amino(6-(1-(6-(hydroxymethyl)pyridin-2-yl)-1H-indazol-6-yl)pyridin-2-yl)methyl)cyclopentanol-A], the IC50 against IRAK4 was ≤ 100 nM. Moreover, in the experiment with A549 cells (Homo sapiens, A549, A549 cells), the EC50 was ≤ 1000 nM.
Regarding `NC(c1cccc(-c2ccc3cnn(-c4cccc(CO)n4)c3c2)n1)C1CCC(O)C1` (single isomer, unassigned) [Compound 22, 3-(amino(6-(1-(6-(hydroxymethyl)pyridin-2-yl)-1H-indazol-6-yl)pyridin-2-yl)methyl)cyclopentanol-B], the IC50 against IRAK4 is ≤ 100 nM. The compound further gave an EC50 in the experiment with A549 cells (A549 cells) of 1000 to 10000 nM.
In the same order, the values of `NC(c1cccc(-c2ccc3cnn(-c4cccc(CO)n4)c3c2)n1)C1CCC(O)C1` (single isomer, unassigned) [Compound 23, 3-(amino(6-(1-(6-(hydroxymethyl)pyridin-2-yl)-1H-indazol-6-yl)pyridin-2-yl)methyl)cyclopentanol-C] are ≤ 100 nM and ≤ 1000 nM.
As to `N[C@H](c1cccc(-c2ccc3cnn(-c4cccc(CO)n4)c3c2)n1)C1CC(CO)C1` (stereo partly drawn) [Compound 1, (S)-(6-(6-(6-(amino(3-(hydroxymethyl)cyclobutyl)methyl)pyridin-2-yl)-1H-indazol-1-yl)pyridin-2-yl)methanol], the IC50 against IRAK4 is ≤ 100 nM. Besides, the concentration for a half-maximal effect (EC50) in the experiment on A549 cells (Homo sapiens, A549, A549 cells) is ≤ 1000 nM.
`N[C@@H](c1cccc(-c2ccc3cnn(-c4cccc(CO)n4)c3c2)n1)C1CC(CO)C1` (stereo partly drawn) [Compound 2, (R)-(6-(6-(6-(amino(3-(hydroxymethyl)cyclobutyl)methyl)pyridin-2-yl)-1H-indazol-1-yl)pyridin-2-yl)methanol]: the IC50 on IRAK4 was ≤ 100 nM. Moreover, the concentration for a half-maximal effect (EC50) in the experiment with A549 cells (Homo sapiens, A549, A549 cells) is ≤ 1000 nM.
Regarding `N[C@H](c1cccc(-c2ccc3cnn(-c4cccc(CO)n4)c3c2)n1)C1CC(CO)C1` (stereo partly drawn) [Compound 3, (S)-(6-(6-(6-(amino(3-(hydroxymethyl)cyclobutyl)methyl)pyridin-2-yl)-1H-indazol-1-yl)pyridin-2-yl)methanol], in the experiment on A549 cells (A549 cells), the half-maximal effective concentration (EC50) is ≤ 1000 nM.
Regarding `N[C@H](c1cccc(-c2ccc3cnn(-c4cccc(CO)n4)c3c2)n1)[C@H]1C[C@@H](O)C1` [Compound 4, cis-3-((S)-amino(6-(1-(6-(hydroxymethyl)pyridin-2-yl)-1H-indazol-6-yl)pyridin-2-yl)methyl)cyclobutanol], the half-maximal inhibitory concentration (IC50) at IRAK4 is ≤ 100 nM. Also, the concentration giving a half-maximal response (EC50) in the experiment on A549 cells (Homo sapiens, A549, A549 cells) is ≤ 1000 nM.
For `N[C@@H](c1cccc(-c2ccc3cnn(-c4cccc(CO)n4)c3c2)n1)[C@H]1C[C@@H](O)C1` [Compound 5, (cis)-3-((R)-amino(6-(1-(6-(hydroxymethyl)pyridin-2-yl)-1H-indazol-6-yl)pyridin-2-yl)methyl)cyclobutan-1-ol hydrochloride], in that order: ≤ 100 nM and ≤ 1000 nM.
Consider `N[C@H](c1cccc(-c2ccc3cnn(-c4cccc(CO)n4)c3c2)n1)[C@H]1C[C@H](O)C1` [Compound 6, trans-3-((S)-amino(6-(1-(6-(hydroxymethyl)pyridin-2-yl)-1H-indazol-6-yl)pyridin-2-yl)methyl)cyclobutanol], for which the 50% inhibitory concentration (IC50) against IRAK4 was ≤ 100 nM. Besides, the EC50 in the experiment with A549 cells (Homo sapiens, A549, A549 cells) was ≤ 1000 nM.
In the same order, the values of `N[C@@H](c1cccc(-c2ccc3cnn(-c4cccc(CO)n4)c3c2)n1)[C@H]1C[C@H](O)C1` [Compound 7, trans-3-((R)-amino(6-(1-(6-(hydroxymethyl)pyridin-2-yl)-1H-indazol-6-yl)pyridin-2-yl)methyl)cyclobutanol] are ≤ 100 nM and ≤ 1000 nM.
For `N[C@H](c1cccc(-c2ccc3cnn(-c4nccc(CO)n4)c3c2)n1)[C@H]1C[C@@H](O)C1` [Compound 8, (1R,3S)-3-((S)-amino(6-(1-(4-(hydroxymethyl)pyrimidin-2-yl)-1H-indazol-6-yl)pyridin-2-yl)methyl)cyclobutanol], in that order: ≤ 100 nM and ≤ 1000 nM.
Take `N[C@H](c1cccc(-c2ccc3cnn(-c4cncc(CO)n4)c3c2)n1)[C@H]1C[C@@H](O)C1` [Compound 9, cis 3-((S)-amino(6-(1-(6-(hydroxymethyl)pyrazin-2-yl)-1H-indazol-6-yl)pyridin-2-yl)methyl)cyclobutanol]: at IRAK4, the IC50 was ≤ 100 nM. Further, the EC50 with A549 cells (Homo sapiens, A549, A549 cells) was ≤ 1000 nM.
Turning to `N[C@H](c1cccc(-c2ccc3cnn(-c4cccc(C(F)(F)F)n4)c3c2)n1)[C@H]1C[C@@H](O)C1` [Compound 10, (1R,3S)-3-((S)-amino(6-(1-(6-(trifluoromethyl)pyridin-2-yl)-1H-indazol-6-yl)pyridin-2-yl)methyl)cyclobutanol], the 50% inhibitory concentration (IC50) against IRAK4 was ≤ 100 nM. Also, the concentration for a half-maximal effect (EC50) in the experiment on A549 cells (Homo sapiens, A549, A549 cells) is ≤ 1000 nM.
In turn, `CCc1ccnc(-n2ncc3ccc(-c4cccc([C@@H](N)[C@H]5C[C@@H](O)C5)n4)cc32)n1` [Compound 11, (1R,3S)-3-((S)-amino(6-(1-(4-ethylpyrimidin-2-yl)-1H-indazol-6-yl)pyridin-2-yl)methyl)cyclobutanol] came in with an IC50 against IRAK4 of 100 to 1000 nM. In the experiment on A549 cells (Homo sapiens, A549, A549 cells), the EC50 was ≤ 1000 nM.
In the same order, the values of `CCc1cccc(-n2ncc3ccc(-c4cccc([C@@H](N)[C@H]5C[C@@H](O)C5)n4)cc32)n1` [Compound 12, (1R,3s)-3-((S)-amino(6-(1-(6-ethylpyridin-2-yl)-1H-indazol-6-yl)pyridin-2-yl)methyl)cyclobutanol] are ≤ 100 nM and 1000 to 10000 nM.
In the same order, the values of `N[C@H](c1cccc(-c2ccc3cnn(-c4nccc(C(F)(F)F)n4)c3c2)n1)[C@H]1C[C@@H](O)C1` [Compound 13, (1R,3s)-3-((S)-amino(6-(1-(4-(trifluoromethyl)pyrimidin-2-yl)-1H-indazol-6-yl)pyridin-2-yl)methyl)cyclobutanol] are ≤ 100 nM and ≤ 1000 nM.
On to `N[C@H](c1cncc(-c2ccc3cnn(-c4cccc(CF)n4)c3c2)n1)[C@H]1C[C@@H](O)C1` [Compound 18, cis-3-((S)-amino(6-(1-(6-(fluoromethyl)pyridin-2-yl)-1H-indazol-6-yl)pyrazin-2-yl)methyl)cyclobutanol], for which the IC50 on IRAK4 lay in the range of 100 to 1000 nM.
Still for that read-out and setting: with `N[C@H](c1cncc(-c2ccc3cnn(-c4cccc(C(F)(F)F)n4)c3c2)n1)[C@H]1C[C@@H](O)C1` [Compound 19, cis-3-((S)-amino(6-(1-(6-(trifluoromethyl)pyridin-2-yl)-1H-indazol-6-yl)pyrazin-2-yl)methyl)cyclobutanol] the figure was ≤ 100 nM.
The same measure, in the same setting: with `N#CC1(c2cccc(-n3ncc4ccc(-c5cccc([C@@H](N)[C@H]6C[C@@H](O)C6)n5)cc43)n2)CC1` [Compound 20, 1-(6-(6-(6-((S)-amino(cis-3-hydroxycyclobutyl)methyl)pyridin-2-yl)-1H-indazol-1-yl)pyridin-2-yl)cyclopropanecarbonitrile] the figure was ≤ 100 nM; with `N[C@@H](c1cccc(-c2ccc3cnn(-c4cccc(CO)n4)c3c2)n1)C1(F)CCC1` [Compound 31, (S)-(6-(6-(6-(amino(1-fluorocyclobutyl)methyl)pyridin-2-yl)-1H-indazol-1-yl)pyridin-2-yl)methanol], ≤ 100 nM; with `N[C@H](c1cccc(-c2ccc3cnn(-c4cccc(CO)n4)c3c2)n1)C1(F)CCC1` [Compound 32, (R)-(6-(6-(6-(amino(1-fluorocyclobutyl)methyl)pyridin-2-yl)-1H-indazol-1-yl)pyridin-2-yl)methanol], ≤ 100 nM.
As to `N[C@H](c1cccc(-c2ccc3cnn(-c4cccc(CO)n4)c3c2)n1)C1(F)CCC1` [Compound 35c, (R)-(6-(6-(6-(amino(1-fluorocyclobutyl)methyl)pyridin-2-yl)-1H-indazol-1-yl)pyridin-2-yl) methanol], in the experiment on A549 cells (Homo sapiens, A549, A549 cells), the 50% effective concentration (EC50) was 1000 to 10000 nM.
Turning to `N[C@@H](c1cccc(-c2ccc3cnn(-c4cccc(CO)n4)c3c2)n1)C1(F)CCC1` [Compound 35d, (S)-(6-(6-(6-(amino(1-fluorocyclobutyl)methyl)pyridin-2-yl)-1H-indazol-1-yl)pyridin-2-yl) methanol], in the experiment with A549 cells (Homo sapiens, A549, A549 cells), the EC50 is ≤ 1000 nM.
Consider `CO[C@H]1C[C@H]([C@H](N)c2cccc(-c3ccc4cnn(-c5cccc(C(F)F)n5)c4c3)n2)C1` [Compound 35j, (S)-(6-(1-(6-(difluoromethyl)pyridin-2-yl)-1H-indazol-6-yl)pyridin-2-yl)((1R,3S)-3-methoxycyclobutyl)methanamine], for which the EC50 in the experiment on A549 cells (Homo sapiens, A549, A549 cells) was ≤ 1000 nM.
With `CC1([C@H](N)c2cccc(-c3ccc4cnn(-c5cccc(CF)n5)c4c3)n2)CCC1` [Compound 35k, (S)-(6-(1-(6-(fluoromethyl)pyridin-2-yl)-1H-indazol-6-yl)pyridin-2-yl)(1-methylcyclobutyl)methanamine], in the experiment on A549 cells (Homo sapiens, A549, A549 cells), the EC50 was in the range of 1000 to 10000 nM.
For the compound `N#CC1CC([C@H](N)c2cccc(-c3ccc4cnn(-c5cccc(CF)n5)c4c3)n2)C1` (stereo partly drawn) [Compound 35l, (S)-3-(amino(6-(1-(6-(fluoromethyl)pyridin-2-yl)-1H-indazol-6-yl)pyridin-2-yl)methyl)cyclo butane-1-carbonitrile], the EC50 with A549 cells (Homo sapiens, A549, A549 cells) is ≤ 1000 nM.

One may read the IC50 as the point on the concentration scale where inhibition reaches its midpoint. A low value points to greater potency in that assay. Broadly, the EC50 is the concentration giving half of the maximal effect. Higher therefore signals a need for much substance.
